# Test results published in patent publication US20120130146A1, “CONTINUOUS ADMINISTRATION OF CILENGITIDE IN CANCER TREATMENTS” (Merck Patent GmbH, priority 2009, published 2012).
# Where “and” joins values, the source holds several entries; their conditions need not be identical. Identical values can stand only once.
# Assays:
# [1] = system: advanced solid malignancy; test: Phase I study of continuous infusion EMD 121974 in patients with advanced solid malignancy (safety); type: in vivo
# Experimental: Background: Integrins avβ3 and avβ5 are cell-surface receptors that play a significant role in angiogenesis by mediating the ligation signal that allows endothelial cells to attach to the extracellular matrix. These integrins share the binding epitope Arg-Gly-Asp (RGD). EMD is an RGD-containing cyclic pentapeptide. In clinical studies to date, EMD has been administered in an intermittent fashion. […] Methods: EMD was administered as a continuous infusion without break in 4-week cycles. Plasma samples for pharmacokinetic studies were obtained weekly in cycle 1 immediately prior to and 2 hours after infusion bag change. Results: To date 21 patients (15 male/6 female, median age 56, median Karnofsky performance status 90%) have been treated at the following dose levels: 1, 2, 4, 8, 12, 18, and 27 mg/h. […] Non-hematologic toxicities have been limited to grade<2 and include alopecia, anorexia, diarrhea, fatigue, hypokalemia, hyponatremia, hypophosphatemia, insomnia, mucositis, nail changes, nausea, and transaminase elevation. […] Pharmacokinetic analysis has been completed for patients treated at the 12 mg/h dose level and below. […] Conclusions: EMD can be safely administered as a continuous infusion at doses of up to at least 18 mg/h. No single toxicity has been consistently observed.
# [2] = human, in vivo; cited from earlier work
# [3] = Continuous infusion study pharmacokinetics (plasma); type: in vivo, human; conditions: for EMD 121974 Concentrations / CL / V / ke / Css: individual subjects; for CL: CL=Rate/Css; for V, Mean / ke, Mean / V: t1/2 = 4 hours; for V: V=CL/ke; for ke: for t1/2 = 4 hours; for Css: mean of 168 h to 506 h values per patient
# Experimental: Patients with solid tumors received a continuous infusion of 1 mg/h, 2 mg/h, 4 mg/h, 8 mg/h or 12 mg/h. with a weekly change of infusion bag.
# Blood samples were taken on Day 1 (first dose) at pre-dose and 2 h after start of infusion and then weekly just before change of infusion bag and 2 hours thereafter for the first 4 weeks.
# The following pharmacokinetic parameters were derived at Merck KGaA. Darmstadt, Germany, by mathematical methods using Kinetica Version 4.1.1.
# CL the total body clearance of EMD 121974 from plasma Css plasma concentration at steady state ke elimination rate constant Rate infusion rate t1/2, half life V Volume of distribution
# Css, the plasma concentration at steady state, has been estimated by the arithmetic mean of all concentration values from time point 168 h to 506 h per patient.
# From Css and t1/2 the PK parameters CL, ke and V were calculated as follows: […]
# [4] = Rate 1 mg/h, listed as EMD 121974
# [5] = Rate 2 mg/h, listed as EMD 121974
# [6] = Rate 4 mg/h, listed as EMD 121974
# [7] = Rate 8 mg/h, listed as EMD 121974
structure (smiles),measurement,setting,value
"CC(C)[C@H]1C(=O)N[C@@H](CCCN=C(N)N)C(=O)NCC(=O)N[C@@H](CC(=O)O)C(=O)N[C@H](Cc2ccccc2)C(=O)N1C [Cilengitide, cyclo-(Arg-Gly-Asp-DPhe-NMeVal)]",dose that can be safely administered as a continuous infusion,"[1]; human, in vivo",at least 18 mg/h
same,patient death,"[1]; one patient treated at 27 mg/h, after two weeks of therapy",unobserved death of unknown cause
same,half-life,[2],3 to 5 h
same,"Mean values for half-life, clearance, and volume of distribution across dose levels",[3]; 12 mg/h dose level and below,comparable across dose levels
same,EMD 121974 Concentrations,"[3]; Rate 1 mg/h, 0 h (pre-dose)",Undetectable
same,EMD 121974 Concentrations,"[3]; Rate 1 mg/h, 2 h, listed as EMD 121974",42.90 ng/mL and Undetectable
same,EMD 121974 Concentrations,"[3]; Rate 1 mg/h, 168 h, listed as EMD 121974",240.00 ng/mL
same,EMD 121974 Concentrations,"[3]; Rate 1 mg/h, 170 h, listed as EMD 121974",156.00 ng/mL and 10.30 ng/mL
same,EMD 121974 Concentrations,"[3]; Rate 1 mg/h, 336 h, listed as EMD 121974",324.00 ng/mL and 172.00 ng/mL
same,EMD 121974 Concentrations,"[3]; Rate 1 mg/h, 338 h, listed as EMD 121974",321.00 ng/mL and 153.00 ng/mL
same,CL,[3]; [4],3.84 L/h and 10.17 L/h and 10.93 L/h
same,"V, Mean",[3]; Rate 1 mg/h,48.0 L
same,"ke, Mean",[3]; Rate 1 mg/h,0.173 h⁻¹
same,V,[3]; [4],22.2 L and 58.7 L and 63.1 L
same,ke,[3]; Rate 1 mg/h,0.173 h⁻¹
same,Css,[3]; [4],260.3 ng/mL and 98.4 ng/mL and 91.5 ng/mL
same,EMD 121974 Concentrations,"[3]; Rate 2 mg/h, 0 h (pre-dose)",Undetectable
same,EMD 121974 Concentrations,"[3]; Rate 2 mg/h, 2 h, listed as EMD 121974",162.00 ng/mL and Undetectable
same,EMD 121974 Concentrations,"[3]; Rate 2 mg/h, 168 h, listed as EMD 121974",189.00 ng/mL and 498.00 ng/mL
same,EMD 121974 Concentrations,"[3]; Rate 2 mg/h, 170 h",316.00 ng/mL
same,EMD 121974 Concentrations,"[3]; Rate 2 mg/h, 170 h, listed as EMD 121974",244.00 ng/mL
same,EMD 121974 Concentrations,"[3]; Rate 2 mg/h, 336 h, listed as EMD 121974",467.00 ng/mL and 523.00 ng/mL
same,EMD 121974 Concentrations,"[3]; Rate 2 mg/h, 338 h, listed as EMD 121974",327.00 ng/mL and 392.00 ng/mL
same,EMD 121974 Concentrations,"[3]; Rate 2 mg/h, 504 h, listed as EMD 121974",268.00 ng/mL and 485.00 ng/mL
same,EMD 121974 Concentrations,"[3]; Rate 2 mg/h, 506 h, listed as EMD 121974",247.00 ng/mL and 427.00 ng/mL
same,CL,[3]; [5],4.54 L/h
same,"V, Mean",[3]; Rate 2 mg/h,33.0 L
same,"ke, Mean",[3]; Rate 2 mg/h,0.173 h⁻¹
same,V,[3]; [5],39.8 L and 26.2 L
same,ke,[3]; Rate 2 mg/h,0.173 h⁻¹
same,Css,[3]; [5],290.3 ng/mL and 440.2 ng/mL
same,EMD 121974 Concentrations,"[3]; Rate 4 mg/h, 0 h (pre-dose)",Undetectable
same,EMD 121974 Concentrations,"[3]; Rate 4 mg/h, 2 h, listed as EMD 121974",228.00 ng/mL and 303.00 ng/mL and 454.00 ng/mL
same,EMD 121974 Concentrations,"[3]; Rate 4 mg/h, 168 h, listed as EMD 121974",467.00 ng/mL and 517.00 ng/mL and 894.00 ng/mL
same,EMD 121974 Concentrations,"[3]; Rate 4 mg/h, 170 h, listed as EMD 121974",408.00 ng/mL and 372.00 ng/mL and 843.00 ng/mL and 439.00 ng/mL
same,EMD 121974 Concentrations,"[3]; Rate 4 mg/h, 336 h, listed as EMD 121974",606.00 ng/mL and 847.00 ng/mL
same,EMD 121974 Concentrations,"[3]; Rate 4 mg/h, 338 h, listed as EMD 121974",283.00 ng/mL and 644.00 ng/mL and 711.00 ng/mL and 597.00 ng/mL
same,EMD 121974 Concentrations,"[3]; Rate 4 mg/h, 504 h, listed as EMD 121974",1170.00 ng/mL and 524.00 ng/mL and 482.00 ng/mL and 485.00 ng/mL
same,EMD 121974 Concentrations,"[3]; Rate 4 mg/h, 506 h, listed as EMD 121974",776.00 ng/mL and 649.00 ng/mL and 618.00 ng/mL
same,CL,[3]; [6],7.51 L/h and 5.96 L/h and 6.19 L/h
same,"V, Mean",[3]; Rate 4 mg/h,37.7 L
same,"ke, Mean",[3]; Rate 4 mg/h,0.173 h⁻¹
same,V,[3]; [6],37.2 L and 43.3 L and 34.4 L and 35.7 L
same,ke,[3]; Rate 4 mg/h,0.173 h⁻¹
same,Css,[3]; [6],620.8 ng/mL and 532.6 ng/mL and 671.3 ng/mL and 646.7 ng/mL
same,EMD 121974 Concentrations,"[3]; Rate 8 mg/h, 0 h (pre-dose)",Undetectable
same,EMD 121974 Concentrations,"[3]; Rate 8 mg/h, 2 h, listed as EMD 121974",603.00 ng/mL and 445.00 ng/mL and 462.00 ng/mL
same,EMD 121974 Concentrations,"[3]; Rate 8 mg/h, 168 h, listed as EMD 121974",1310.00 ng/mL and 881.00 ng/mL and 2190.00 ng/mL
same,EMD 121974 Concentrations,"[3]; Rate 8 mg/h, 170 h, listed as EMD 121974",862.00 ng/mL and 958.00 ng/mL and 1820.00 ng/mL
same,EMD 121974 Concentrations,"[3]; Rate 8 mg/h, 336 h",525.00 ng/mL
same,EMD 121974 Concentrations,"[3]; Rate 8 mg/h, 338 h, listed as EMD 121974",424.00 ng/mL and 1520.00 ng/mL
same,EMD 121974 Concentrations,"[3]; Rate 8 mg/h, 504 h, listed as EMD 121974",1610.00 ng/mL and 1440.00 ng/mL and 1830.00 ng/mL
same,EMD 121974 Concentrations,"[3]; Rate 8 mg/h, 506 h, listed as EMD 121974",1590.00 ng/mL and 771.00 ng/mL and 1500.00 ng/mL
same,CL,[3]; [7],5.96 L/h and 9.60 L/h and 4.51 L/h
same,"V, Mean",[3]; Rate 8 mg/h,38.6 L
same,"ke, Mean",[3]; Rate 8 mg/h,0.173 h⁻¹
same,V,[3]; [7],34.4 L and 55.4 L and 26.1 L
same,ke,[3]; Rate 8 mg/h,0.173 h⁻¹
same,Css,[3]; [7],1343.0 ng/mL and 833.2 ng/mL and 1772.0 ng/mL
same,EMD 121974 Concentrations,"[3]; Rate 12 mg/h, 0 h (pre-dose)",Undetectable
same,EMD 121974 Concentrations,"[3]; Rate 12 mg/h, 2 h, listed as EMD 121974",722.00 ng/mL and 303.00 ng/mL and 472.00 ng/mL
